Values of other authors, collected in US11497742B1, “Pharmaceutical composition for the treatment of Covid-19 infection” (priority 2021, dated 2022).

Assays:
SARS-CoV-2 infection = settings: interim analysis, 775 patients, oral
COVID-19 Mpro = COVID-19 Mpro (Severe acute respiratory syndrome coronavirus 2, UniProt P0DTD1); settings: Hussein and Elkhair 2021

Compound: CC(C)C(=O)OC[C@H]1O[C@@H](n2ccc(NO)nc2=O)[C@H](O)[C@@H]1O [Molnupiravir]
- reduced the risk of hospitalization or death (SARS-CoV-2 infection): approximately 50%

Compound: Zn(CQ)Cl2H2O
- inhibition of COVID-19 Mpro (molecular docking, low binding energies) (COVID-19 Mpro): potent inhibitors

Compound: Zn(HCQ)Cl2H2O
- inhibition of COVID-19 Mpro (molecular docking, low binding energies) (COVID-19 Mpro): potent inhibitors
